A word on the GI50: it is the concentration that inhibits growth by half.

Assay [1] deals with erytroid leukemia cell line K-562. In words: In vitro cytotoxic activity (metabolisation of Calcein AM). Format: cell-based, human. The settings on record: Homo sapiens, K562, 72 hours, highest concentration tested 100 μM in routine testing. The procedure, abridged:
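Cells were pre-incubated 24 hours at 2.500-30.000 cells per well, then exposed to six 3-fold dilutions, usually from 100 μM top, for 72 hours at 37° C, 5% CO2, in triplicate. Calcein AM was added at 1 μg/ml final and fluorescence read after 1 hour; GI50 is the concentration halving Calcein AM conversion.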

The test system of assay [2] is SKH-1 hairless mice. In words: Hairless mouse assay: skin elasticity. The format is in vivo. The settings on record: 3 weeks of topical treatment. The source says:
Evaluation of cutaneous effects of new topical compounds in the hirless mouse assay. The purpose of this study was to evaluate new topical compounds for their safety and efficacy as topical skin anti-aging treatments. The hairless mouse model is a well established model for studying the treatments of photoaging. This model has been used to study mechanisms, define effective treatment regimens and assess safety for retinoids and other anti-aging products. The present study was used to investigate a new class of anti-aging compounds in comparison to classical ones. Recent clinical studies have shown that this class of compounds improve the appearance of photodamaged skin and decrease transepidermal water loss (TEWL) without causing skin irritation. […] At baseline (prior to the 1st treatment), and weekly, the dorsal skin was measured for: transepidermal water loss (TEWL); skin moisture content; and skin elasticity. […]
Skin Moisture Content & Elasticity. […] This instrument is equipped with dual probes which are placed on the skin surface and a quantitative measurement taken of the respective parameters and the measurements recorded on an integrated computer. Mean measurements was determined for each treatment group over time, and comparative statistics used to evaluate product effectiveness. […]

Assay [3] concerns mitochondria of ASF-2 cells. In words: JC-1 staining of mitochondria. The conditions noted are these: 3 days pre-treatment of dermal fibroblasts. The format is cell-based, human. Here is the method:
All cell culture experiments were performed on early and mid passage cultures (about 20 to 40% lifespan completed) of normal human skin fibroblast line, designated ASF-2. In order to check the effects of test compounds on senescent cells, late passage cells with more than 90% lifespan completed were used. ASF-2 cell line was established from a mammary skin biopsy obtained from a young, non-smoking and healthy […] at the time of breast reduction operation. Normal culture conditions of medium (DMEM) containing antibiotics, 10% foetal calf serum, and incubation at 37° C. with 95% humidity were used. The effects of the test compounds were determined using the following procedures.
Briefly, stock solution of JC-1 (Sigma, M2128) was made at 1 mg/ml in dimethyl sulfoxide. Fresh staining solution […] was prepared by diluting the stock solution in warm (37° C.) culture medium supplemented with 10% calf serum (final conc. 1 μg/ml). Around 3000 cells/ml were seeded in 4 chambered flasks. After three days of incubation, medium is aspirated and one ml of JC-1 staining medium is added, after incubation for 10 mins a cover slip is quickly added and viewed under fluorescent microscope at excitation wavelengths of 488 and 647 nm. […] On depolarization, the orange red punctate staining is replaced by diffuse green monomer fluorescence.

In assay [4] the test system is SKH-1 hairless mice. In words: Hairless mouse assay: skin moisture content. Format: in vivo. The source says:
Evaluation of cutaneous effects of new topical compounds in the hirless mouse assay. The purpose of this study was to evaluate new topical compounds for their safety and efficacy as topical skin anti-aging treatments. The hairless mouse model is a well established model for studying the treatments of photoaging. […] The present study was used to investigate a new class of anti-aging compounds in comparison to classical ones. […] Topical compounds and vehicle controls were be applied daily (Monday-Friday) for 3 weeks to the dorsal skin of hairless mice. At baseline (prior to the 1st treatment), and weekly, the dorsal skin was measured for: transepidermal water loss (TEWL); skin moisture content; and skin elasticity.
Experimental Design. 48 female SKH-1 hairless mice (5 weeks old, 20-25 grams, Charles River Laboratories, Wilmington, Mass.) are individually housed in filter-top cages, and acclimated for 5-7 days after delivery. The mice are divided into 8 treatment groups (n=6), including two different control groups (untreated control, vehicle control) and a therapeutic control (tretinoin 0.05% Renova™ cream). Cage cards are marked to indicate treatment groups 1-8. Water and mouse chow are provided ad libitum.
Skin Moisture Content & Elasticity. The measurements of skin moisture content and skin elasticity are important noninvasive methods used to characterize the effects of moisturizers and anti-wrinkle effects on skin. A DermaLab™ combination instrument were used to measure the skin moisture content and elasticity of the target skin sites at baseline and at weekly intervals. This instrument is equipped with dual probes which are placed on the skin surface and a quantitative measurement taken of the respective parameters and the measurements recorded on an integrated computer. Mean measurements was determined for each treatment group over time, and comparative statistics used to evaluate product effectiveness.
Topical Treatments. Beginning on Treatment Day 1, test products are applied topically each morning (Monday through Friday) after erythema evaluations for 3 weeks. Using a positive displacement pipette, 20 mg of each agent is applied to a 2 cm×2 cm area of the center midline of the back. The material was spread across the treatment area with the pipette tip.

Take `Nc1nc2c(NCc3ccco3)ncnc2[nH]1` [Compound 82, 6-furfurylamino-8-aminopurine]: the concentration for 50% growth inhibition (GI50) in assay [1] is 68.2 µM. In addition, the skin elasticity result in assay [2] is on record as “better than controls tested”. The JC-1 staining entry in assay [3] is “punctate orange-red fluorescent staining”. The mean moisture content entry in assay [4] (at week 3) is “most effective”. The average moisture content result in assay [4] (compared with the vehicle) is “higher than that of the vehicle”.

Source of the values: patent US20130072506A1, “6,8-DISUBSTITUTED PURINE COMPOSITIONS” (priority 2011, published 2013).
